Assay results taken from patent publication US20060183693A1, “Use of BIBN4096 in combination with other antimigraine drugs for the treatment of migraine” (Boehringer Ingelheim Pharma GmbH & Co. KG, priority 2001, published 2006).

System: facial skin vasodilation induced by electrical trigeminal ganglion stimulation
Test: Facial skin blood flow (vasodilation) after electrical trigeminal ganglion stimulation, laser Doppler flowmetry
Format: in vivo
Conditions: anaesthetized male Wistar rat, 0.1 mg/kg i.v. 5 min prior to second stimulation
Description: Measurement of Facial Skin Blood Flow
Fasted male wistar rats (strain CHbb:THOM, 280-320 g) were anaesthetized with sodium pentobarbitone (initially with 60 mg/kg i.p. and maintained throughout the experiment with an intraperitoneal infusion of 30 mg/kg/h through a 23 G needle using a solution of 10 mg/ml). […] The trachea was cannulated and the animals were artificially respired (80 strokes/min) with room air supplemented with oxygen. The body temperature was maintained at 37° C. by an automated heating pad. The left femoral artery and the left femoral vein were cannulated for the continuous measurement of arterial blood pressure and intravenous administration of test compounds, respectively. Neuromuscular blockade was achieved by intravenous administration of pancuronium bromide (1 mg/kg/0.5 ml, 5 min prior to each electrical stimulation). Heart rate was derived from the blood pressure signal. Blood pressure and heart rate were continuously monitored throughout the course of the experiment to assess the level of anaesthesia and to monitor the cardiovascular effects of the drugs used in this study.
The animals were placed in a stereotaxic frame and a longitudinal incision was made in the scalp. […] The position of the electrodes in the trigeminal ganglia were checked visually at the end of each experiment following removal of the brain. […]

SMILES: CN1C[C@H](C(=O)N[C@]2(C)O[C@@]3(O)[C@@H]4CCCN4C(=O)[C@H](Cc4ccccc4)N3C2=O)C[C@@H]2c3cccc4[nH]cc(c34)C[C@H]21 [DHE, Dihydroergotamin]
- % of trigeminus stimulation (mean ± spread): 60.4 ± 4.1%
- % inhibition compared to control value (vs saline control): 27.0%
